From US8288379B2, “Thia-triaza-cyclopentazulenes” (Boehringer Ingelheim International GmbH, priority 2009, dated 2012)

Assays:
PC-3 cells = assay: Inhibition of proliferation: CyQuant PC-3; type: cell-based; settings: 72 h; PC-3 human prostate carcinoma cells, incubated with compounds for 3 days, CyQuant NF DNA dye
Description: • GFP-4E-BP1 substrate; Invitrogen order no. PV4759 • Lanthascreen Tb-anti-p4E-BP1 (pThr46) Antibody Kit; Invitrogen order no. PV4758 • FRAP1 (mTOR) kinase; Invitrogen order no. […] Preparation of Reagents: Note: Thaw and keep mTOR, the substrate, ATP, and the antibody on ice prior to making working dilutions. Working dilutions of these components can be kept at room temperature for short periods of time the day of use. 1. Add 2 ml of 5× Assay Buffer to 8 ml water to prepare 10 ml of 1× Assay Buffer. Note: The concentration of 1× Assay Buffer is 50 mM HEPES pH 7.5, 0.01% Polysorbate 20, 1 mM EGTA, and 10 mM MnCl2. 2. Prepare Antibody/EDTA Solution by first adding 2.75 n1 of Tb-anti p4E-BP1 Antibody to 2397 n1 of LanthaScreen™ TR-FRET Dilution Buffer. Then, add 100 n1 of 0.5 M EDTA. 3. Prepare 4× Substrate/Enzyme Solution by first adding 72 n1 of GFP-4E-BP1 (22 nM) to 926 n1 of 1× Assay Buffer. Then, add 1.6 n1 of mTOR (0.45 mg/mL). 4. Prepare ATP Solution by adding 3.2 n1 of 10 mM ATP to 1997 n1 of 1× Assay Buffer. Serial Dilution of Inhibitors (16 Point Curve): Note: It is recommended that inhibitors be serially diluted in DMSO, then diluted to a 4× working concentration with 1× Assay Buffer. The below procedure describes dilution of compounds in a 96-well format prior to transfer to a 384-well format for kinase assays. This procedure calls for dilution of the compounds in 2 adjacent columns of a 96-well plate, which upon transfer to a single column of a 384-well plate with an 8-channel pipette will align the samples in order of concentration. 1. Dispense 40 n1 of DMSO to two adjacent columns of a 96 well plate per compound (e.g. columns 1 and 2). 2. Add 10 n1 of inhibitor stock (10 mM) to the first well of the first column (A1) and mix. 3. Remove 10 n1 from A1 and transfer to the adjacent well in the next column (B1) and mix. 4. Remove 10 n1 from B1 and transfer to the next well in the first column (B2) and mix. 5. Repeat this dilution pattern through well H1 and leave the last well (H2) as DMSO only. 6. Remove 4 n1 of diluted compounds and add to 96 n1 of 1× Assay Buffer in a 96-well plate making 4× compound dilutions. Kinase Reaction: 1. Add 2.5 μl of 4× compound dilutions from the first column of the 96-well plate to every other well of column 1 of a 384-well plate with an 8-channel pipette. Repeat for columns 2 and 3. 2. Add 2.5 n1 of 4× compound dilutions from the second column of the 96-well plate to the empty wells of column 1 of the 384-well plate with an 8-channel pipette. Repeat for columns 2 and 3. Note: This procedure aligns the compound dilutions in order of concentration. 3. Add 2.5 n1 of 4× Enzyme/Substrate Solution to all columns 1-6. 4. Preincubate for 30 min. at RT (shaker). 5. Add 5 n1 of ATP Solution to all wells to start reactions. 6. Shake the assay plate on a plate shaker for 30 seconds. 7. Incubate the assay plate for one hour at room temperature (20-25° C.). Stop Step and Fluorescence Detection: 1. Add 10 n1 of Antibody/EDTA Solution to each well in columns 1-9. 2. Shake the assay plate on a plate shaker for 30 seconds. 3. Incubate the assay plate for one hour at room temperature (20-25° C.). 4. Measure the GFP (FRET) and terbium (reference) emission signals on a fluorescence plate reader (e.g. Perkin Elmer Envision). Data Analysis: 1. Calculate the emission ratio for each sample by dividing the GFP (FRET) signal by the terbium (reference) signal. 2. Plot the concentration of each compound versus the emission ratio. Determine the concentration of compound required to reach 50% of the maximum signal (IC50). Determination of IC50 values can be obtained by curve fitting (sigmoidal dose response, variable slope) using Prism software from GraphPad). Inhibition of Proliferation: CyQuant PC-3 Description:
The CyQuant NF assay is based on measurement of cellular DNA content via fluorescent dye binding. Because cellular DNA content is highly regulated, it is closely proportional to cell number. […]

FRAP1 (mTOR) kinase = target: T1, FRAP1 (mTOR) kinase (Homo sapiens, UniProt P42345); assay: Inhibition of mTOR-induced p-4E-BP1 phosphorylation (TR-FRET mTOR Activity Kit; Invitrogen); type: biochemical; settings: 400 nM GFP-4E-BP1 substrate, ~150 ng/mL mTOR, one hour at room temperature
T1 construct: purchased Invitrogen PV4753
How it was run: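 LanthaScreen TR-FRET: mTOR with GFP-4E-BP1 substrate in HEPES pH 7.5 buffer with 10 mM MnCl2, compound preincubated 30 min at RT, then ATP added and reacted 1 h at 20-25 °C. Stopped with EDTA plus Tb-anti-p4E-BP1 (pThr46), 1 h; GFP/Tb emission ratio over a 16-point curve, sigmoidal fit for IC50.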

T1 sequence (P42345 1360-2549 limits assumed): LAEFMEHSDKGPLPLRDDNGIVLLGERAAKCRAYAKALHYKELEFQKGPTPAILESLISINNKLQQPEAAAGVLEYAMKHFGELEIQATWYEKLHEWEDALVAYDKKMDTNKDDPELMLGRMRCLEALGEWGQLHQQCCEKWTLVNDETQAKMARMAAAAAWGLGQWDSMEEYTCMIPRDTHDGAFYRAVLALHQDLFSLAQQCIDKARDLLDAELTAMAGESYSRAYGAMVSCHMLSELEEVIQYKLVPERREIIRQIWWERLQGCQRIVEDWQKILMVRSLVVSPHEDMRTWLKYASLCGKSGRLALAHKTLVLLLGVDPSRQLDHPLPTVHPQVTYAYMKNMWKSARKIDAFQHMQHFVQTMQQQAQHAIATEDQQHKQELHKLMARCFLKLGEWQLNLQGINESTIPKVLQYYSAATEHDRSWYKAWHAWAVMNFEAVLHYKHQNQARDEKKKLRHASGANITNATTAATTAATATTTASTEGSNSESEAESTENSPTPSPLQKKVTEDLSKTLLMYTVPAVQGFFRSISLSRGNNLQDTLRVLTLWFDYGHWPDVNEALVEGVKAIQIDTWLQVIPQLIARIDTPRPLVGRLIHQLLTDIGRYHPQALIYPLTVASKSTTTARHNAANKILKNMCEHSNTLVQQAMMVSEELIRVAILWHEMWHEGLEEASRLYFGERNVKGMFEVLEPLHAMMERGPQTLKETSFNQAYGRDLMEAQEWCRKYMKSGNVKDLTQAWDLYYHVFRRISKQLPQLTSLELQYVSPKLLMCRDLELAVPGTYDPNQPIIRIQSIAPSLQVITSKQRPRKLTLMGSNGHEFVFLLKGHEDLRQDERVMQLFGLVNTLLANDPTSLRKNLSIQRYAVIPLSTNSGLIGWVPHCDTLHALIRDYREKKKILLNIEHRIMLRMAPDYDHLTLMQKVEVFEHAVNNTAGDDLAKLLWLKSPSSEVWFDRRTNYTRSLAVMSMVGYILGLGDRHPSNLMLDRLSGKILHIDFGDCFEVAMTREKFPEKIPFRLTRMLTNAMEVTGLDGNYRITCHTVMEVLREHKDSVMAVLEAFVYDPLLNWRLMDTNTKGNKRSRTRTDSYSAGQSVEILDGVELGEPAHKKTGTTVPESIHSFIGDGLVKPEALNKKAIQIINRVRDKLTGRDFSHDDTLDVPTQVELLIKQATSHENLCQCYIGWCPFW

Row | Compound | EC50 (PC-3 cells) | IC50 (FRAP1 (mTOR) kinase)
1 | CNc1ccc(-c2nn(-c3ccccc3C)c3c2CCCc2nc(NC(=O)CCOC)sc2-3)cn1 [Example B-106, 3-Methoxy-N-[3-(6-methylamino-pyridin-3-yl)-1-o-tolyl-1,4,5,6-tetrahydro-9-thia-1,2,7-triaza-cyclopenta[e]azulen-8-yl]-propionamide] | 178 nM | 69 nM
2 | CNc1ccc(-c2nn(C3CCCOC3)c3c2CCCc2nc(NC(C)=O)sc2-3)cn1 (centres unmarked) [Example B-83, N-[3-(6-Methylamino-pyridin-3-yl)-1-(tetrahydro-pyran-3-yl)-1,4,5,6-tetrahydro-9-thia-1,2,7-triaza-cyclopenta[e]azulen-8-yl]-acetamide] | 41 nM | 65 nM
3 | CCNc1ccc(-c2nn(C(C)C)c3c2CCCc2nc(NC(C)=O)sc2-3)cn1 [Example B-01, N-[3-(6-Ethylamino-pyridin-3-yl)-1-isopropyl-1,4,5,6-tetrahydro-9-thia-1,2,7-triaza-cyclopenta[e]azulen-8-yl]-acetamide] | 308 nM | 151 nM
4 | CNc1ccc(-c2nn(-c3ccccc3C)c3c2CCCc2nc(NC(=O)OC)sc2-3)cn1 [Example B-50, [3-(6-Methylamino-pyridin-3-yl)-1-o-tolyl-1,4,5,6-tetrahydro-9-thia-1,2,7-triaza-cyclopenta[e]azulen-8-yl]-carbamic acid methyl ester] | 209 nM | 30 nM
5 | CC(=O)Nc1nc2c(s1)-c1c(c(-c3ccc(C)nc3)nn1-c1ccccc1C)CCC2 [Example B-11, N-[3-(6-Methyl-pyridin-3-yl)-1-o-tolyl-1,4,5,6-tetrahydro-9-thia-1,2,7-triaza-cyclopent[e]azulen-8-yl]-acetamide] | 476 nM | 805 nM
6 | CNc1ccc(-c2nn(CCN3CCOCC3)c3c2CCCc2nc(NC(C)=O)sc2-3)cn1 [Example B-82, N-[3-(6-Methylamino-pyridin-3-yl)-1-(2-morpholin-4-yl-ethyl)-1,4,5,6-tetrahydro-9-thia-1,2,7-triaza-cyclopenta[e]azulen-8-yl]-acetamide] | 49 nM | 33 nM
7 | C=CCn1nc(-c2ccc(N)nc2)c2c1-c1sc(NC(=O)N(C)C)nc1CCC2 [Example B-52] | 326 nM | 146 nM
8 | CCCn1nc(-c2ccc(N)nc2)c2c1-c1sc(NC(=O)N(C)C)nc1CCC2 [Example B-33] | 310 nM | 116 nM
9 | CNc1ccc(-c2nn(-c3cccnc3C)c3c2CCCc2nc(NC(C)=O)sc2-3)cn1 [Example B-139, N-[3-(6-Methylamino-pyridin-3-yl)-1-(2-methyl-pyridin-3-yl)-1,4,5,6-tetrahydro-9-thia-1,2,7-triaza-cyclopent[e]azulen-8-yl]acetamide] | 71 nM | 21 nM
10 | CNc1ccc(-c2nn(-c3ccccc3C)c3c2CCCc2nc(NC(C)=O)sc2-3)cn1 [Example B-06, N-[3-(6-Methylamino-pyridin-3-yl)-1-o-tolyl-1,4,5,6-tetrahydro-9-thia-1,2,7-triaza-cyclopenta[e]azulen-8-yl]-acetamide] | 66 nM | 36 nM
11 | CC(=O)Nc1nc2c(s1)-c1c(c(-c3c[nH]c(C)n3)nn1CC(C)C)CCC2 [Example B-121, N-[1-Isobutyl-3-(2-methyl-1H-imidazol-4-yl)-1,4,5,6-tetrahydro-9-thia-1,2,7-triaza-cyclopenta[e]azulen-8-yl]-acetamide] | 73 nM | 35 nM
12 | CCNc1ccc(-c2nn(-c3cccc(OC)c3)c3c2CCCc2nc(NC(C)=O)sc2-3)cn1 [Example B-128] | 119 nM | 108 nM
13 | CNc1ccc(-c2nn(CCOC)c3c2CCCc2nc(NC(C)=O)sc2-3)cn1 [Example B-03, N-[1-(2-Methoxy-ethyl)-3-(6-methylamino-pyridin-3-yl)-1,4,5,6-tetrahydro-9-thia-1,2,7-triaza-cyclopenta[e]azulen-8-yl]-acetamide] | 263 nM | 87 nM
14 | COCC(=O)Nc1nc2c(s1)-c1c(c(-c3ccc(N)nc3)nn1-c1ccccc1F)CCC2 [Example E-18, N-[3-(6-Amino-pyridin-3-yl)-1-(2-fluoro-phenyl)-1,4,5,6-tetrahydro-9-thia-1,2,7-triaza-cyclopenta[e]azulen-8-yl]-2-methoxy-acetamide] | 87 nM | 59 nM
15 | CNc1ccc(-c2nn(-c3ccccc3)c3c2CCCc2nc(NC(C)=O)sc2-3)cn1 [Example B-87, N-[3-(6-Methylamino-pyridin-3-yl)-1-phenyl-1,4,5,6-tetrahydro-9-thia-1,2,7-triaza-cyclopenta[e]azulen-8-yl]-acetamide] | 21 nM | 55 nM
16 | CCNc1ccc(-c2nn(-c3ccccc3OC)c3c2CCCc2nc(NC(C)=O)sc2-3)cn1 [Example B-78] | 249 nM | 136 nM
17 | CCNc1ccc(-c2nn(-c3ccccc3F)c3c2CCCc2nc(NC(C)=O)sc2-3)cn1 [Example B-76, N-[3-(6-Ethylamino-pyridin-3-yl)-1-(2-fluoro-phenyl)-1,4,5,6-tetrahydro-9-thia-1,2,7-triaza-cyclopenta[e]azulen-8-yl]-acetamide] | 79 nM | 31 nM
18 | CCNc1ccc(-c2nn(-c3ccccc3C)c3c2CCCc2nc(NC(=O)CCCN(C)C)sc2-3)cn1 [Example B-70] | 284 nM | 62 nM
19 | C=CCn1nc(-c2ccc(NC)nc2)c2c1-c1sc(NC(=O)N(C)C)nc1CCC2 [Example B-47] | 703 nM | 734 nM
20 | NCC(=O)Nc1nc2c(s1)-c1c(c(-c3ccc(N)nc3)nn1-c1ccccc1F)CCC2 [Example B-101] | 96 nM | 22 nM
21 | CNC(=O)Nc1nc2c(s1)-c1c(c(-c3ccc(NC)nc3)nn1-c1cccnc1C)CCC2 [Example B-143, 1-Methyl-3-[3-(6-methylamino-pyridin-3-yl)-1-(2-methyl-pyridin-3-yl)-1,4,5,6-tetrahydro-9-thia-1,2,7-triaza-cyclopent[e]azulen-8-yl]-urea] | 424 nM | 71 nM
22 | CC(=O)Nc1nc2c(s1)-c1c(c(-c3ccc(C)nc3)nn1C(C)C)CCC2 [Example B-09, N-[1-Isopropyl-3-(6-methyl-pyridin-3-yl)-1,4,5,6-tetrahydro-9-thia-1,2,7-triaza-cyclopent[e]azulen-8-yl]acetamide] | 334 nM | 266 nM
23 | CCn1nc(-c2ccc(N)nc2)c2c1-c1sc(NC(=O)N(C)C)nc1CCC2 [Example B-35] | 408 nM | 219 nM
24 | CC(=O)Nc1nc2c(s1)-c1c(c(-c3c[nH]cn3)nn1CC(C)C)CCC2 [Example B-113] | 29 nM | 9 nM
25 | CNc1ccc(-c2nn(-c3ccccc3F)c3c2CCCc2nc(NC(=O)N(C)C)sc2-3)cn1 [Example B-43] | 191 nM | 141 nM
